From patent US8828993B2, “Psychotropic agents having glutamate NMDA activity” (Ramot At Tel-Aviv University Ltd., priority 2006, dated 2014)
Where a name gives a salt, the structure may show the parent alone.

Experiments:
mice [1] = assay: Catalepsy bar test; format: in vivo; conditions: doses of up to 50 mg/kg i.p., scored 90 minutes later
Description: Catalepsy in mice and rats serves as a behavioral model for the manifestation of the extrapyramidal adverse effects of neuroleptics (Worm, et al., Dopamine-like activities of an aminopyridazine derivative, CM 30366. A behavioral study, Naunyn-Schmeideberg's Arch Pharmacol, 334, 246-52, 1986).
Catalepsy in mice is evaluated using a bar test. The mice were placed in the middle of a steel rod situated between two platforms with their front paws resting on the bar. Animals were injected i.p. with a vehicle or Compound 1. Animals were scored 90 minutes later for the time it took each animal to reach the platform.

ICR male mice = assay: Subchronic toxicity; format: in vivo
Description: Subchronic toxicity was tested in ICR male mice. Animals (5 per group) received Compound 1 daily (10 and 20 mg/kg p.o). Animals were followed up for 7 days; weight, food intake and water intake were registered.

[2] = tested on: MK-801-induced hyperactivity in mice; assay: MK-801-induced hyperactivity in open field; format: in vivo
Description: MK-801-Induced Stereotype Behavior in Rats (in Open Field)—
MK-801 is an analogue of PCP which inhibits NMDA receptors and elicits hyperlocomotion and stereotypic behavior in rodents and is used as an animal model of schizophrenia (Stephen, et al., Topiramate antagonizes MK-801 in an animal model of schizophrenia, Eur. J. Pharmacol. 449, 2002, 121-5). For experimentation, naïve Balb/c mice were used. MK-801 (0.15 mg/kg i.p) was administered 40 minutes after Compound 1 (or any one of the other compounds of the invention) or a vehicle, and 20 minutes prior to placing the mouse in an open field.
Animals placed in the open field were followed for 60 minutes and their distance moved, velocity, duration of immobility, and number of rearing events were registered using the Noldus system.
As stated above, MK-801 inhibits NMDA receptors and elicits hyperlocomotion. Therefore, where an antagonism of the hyperactivity-induced by the MK-801 is observed upon administration of a compound of the invention, it is an indication as to the positive modulation of the NMDA activity. In other words, such a compound may be considered as useful in the treatment of schizophrenia.
The effect of Compound 6 on the distance moved in Balb/c mice exposed to MK-801 ([…]) i.p. and to Compound 6 (up to 12.5 mg/kg, i.p.) administered 1 hr prior to MK-801 was also tested.
As stated above, MK-801 (an NMDA receptor antagonist) is a widely accepted animal model for schizophrenia. The experiment was conducted with Balb/c male mice (Harlan Il), 6 per group. Compound 1 (50 mg/kg) was administered i.p. (1 hr before experimentation), to mice alone or combined with MK-801 (0.15 mg/kg, i.p.) administered 20 minutes prior to placing the mice individually in an open field for 60 minutes. The hyper-active behavior expressed by hyperlocomotion, velocity, strong mobility, number of rearing was evaluated using the Noldus system, each point represents the mean+/−6 determinations.

human glioma U83 cell = conditions: 24 h
Description: Determination of cell viability was performed in cells (10,000/well) using neutral red method. Absorption of neutral red by lysosomes caused coloring of living cells. Quantitative analysis was performed by colorimetric assay (ELISA reader at 550 nm).

mice [3] = assay: Forced swim test (FST); format: in vivo
Source text: This is one of the most widely used tools for screening antidepressant activity pre-clinically in acute treatment. The test was first described by Porsolt et al., (Behavioral despair in mice: a primary screening test for antidepressants. Arch. Int. Pharmacodyn. Ther. 229, pp. 327-336, 1977). The FST test is based on the observation that rats and mice develop an immobile posture when placed in an inescapable cylinder of water. This behavior is considered a behavioral despair as opposed to active form of coping with stressful conditions. The FST test is considered a good screening tool with good reliability and predictive validity.
Three parameters were defined in the evaluation of FST:
1. Immobility—defined in the traditional Porsolt test as when no additional activity is observed other than that required to keep the animal's head above water;
2. Swimming behavior—being the movement (usually horizontal) throughout the chamber that also includes crossing into another quadrant;
3. Climbing behavior—being defined as the upward-directed movements (vertical) of the forepaws along the side of the swim chamber.
The test in mice was conducted acutely (60-90 minutes post oral drug administration) and animals were dropped to the cylinder for 6 minutes and scoring was performed in the last 4 minutes after 2 minutes of adaptation.
Round glass cylinders, 18 cm in diameter and 20 cm deep were used. Water temperature was 24-28° C. Four parameters were taken: immobility, velocity, distance and strong mobility. The immobility in the animals was defined by activity lower than 10% movement of the center of gravity of the animal. Swimming was defined by the distance and the velocity of the animal, and climbing was related to strong mobility (movement of center of gravidance more than 30%).
Males Balb/c mice (Harlan Israel) were used. Animals were administered orally with Compound 1 (10 or 20 mg/kg) or with a vehicle.
Males ICR mice were used.

[4] = ICR male mice, 10 and 20 mg/kg p.o. daily, 7 days
[5] = male Balb/c mice, 10 mg/kg oral, vs vehicle

## COC(=O)C(N)CN1CCN(C2=Nc3ccccc3Nc3sc(C)cc32)CC1 (stereo not shown) [Compound 1, 2-amino-3-[4-(2-methyl-10H-thieno[2,3-b][1,5]benzodiazepin-4-yl)-piperazin-1-yl]-propionic acid, methyl ester hydrochloride salt]
Mice [1]
  catalepsy: did not induce catalepsy
ICR male mice; [4]
  animal general behavior: no apparent difference
  body weight compared to control animals: no difference
  food intake compared to control animals: no difference
  tolerability: well tolerated
  water intake compared to control animals: no difference
ICR male mice; up to 20 mg/kg given for 7 days
  toxic effect: did not cause toxic effect
[2]; Balb/c male mice, 50 mg/kg i.p.
  vertical motility (number of rearings), compound alone: markedly suppressed
[2]; Balb/c male mice, 50 mg/kg i.p. combined with MK-801 0.15 mg/kg i.p.
  inhibition of rearings presented by MK-801: increased
[2]; Balb/c male mice, 50 mg/kg i.p., MK-801 0.15 mg/kg i.p., open field 60 minutes
  basal and MK-801-induced stimulation of horizontal motility (distance moved, velocity, strong mobility): clear cut decrease
[2]; mice, 30 and 50 mg/kg i.p.
  hyperlocomotion effect of MK-801: inhibited in a dose related manner
  increased frequency to the center of animals treated with MK-801: did not modify
  time spent in the center (zone 3), MK-801 treated: increased
Human glioma U83 cell
  concentration toxic to human glioma cells (not toxic up to): > 100 µM
Mice [3]; [5]
  distance moved (swimming behavior): significantly increased
  strong mobility (climbing behavior): significantly increased
Mice [3]; male Balb/c mice, 20 mg/kg oral, vs vehicle
  immobility: decreased
Mice [3]; male ICR mice, 20 mg/kg oral
  distance moved: did not modify
  immobility: significantly decreased
  strong mobility (climbing): significantly decreased
  velocity: did not modify

## CNC(CN1CCN(C2=Nc3ccccc3Nc3sc(C)cc32)CC1)C(=O)OC (stereo not shown) [Compound 6, 2-N-methylamino-3-[4-(2-methyl-10H-thieno[2,3-b][1.5]benzodiazepin-4-yl)-piperazin-1-yl]propionic acid, methyl ester trihydrochloride salt]
[2]; Balb/c mice, up to 12.5 mg/kg i.p. 1 hr prior to MK-801 (15 mg/kg) i.p.
  motility (distance moved) of MK-801 treated mice: did not cause a consistent dose dependent effect
